The source of these data is patent US8796230B2, “Ivermectin antagonizes ethanol inhibition in P2X4 receptors” (University of Southern California, priority 2010, dated 2014).

Each structure is given as a SMILES string. Like-named read-outs stand apart in the source and are kept apart here.

One test addresses T1, rat P2X4R (Rattus norvegicus, UniProt P51577).
T1 construct: expressed in transfected cells; host or cells: Xenopus laevis oocytes injected with cRNA
T1 sequence (P51577 1-388): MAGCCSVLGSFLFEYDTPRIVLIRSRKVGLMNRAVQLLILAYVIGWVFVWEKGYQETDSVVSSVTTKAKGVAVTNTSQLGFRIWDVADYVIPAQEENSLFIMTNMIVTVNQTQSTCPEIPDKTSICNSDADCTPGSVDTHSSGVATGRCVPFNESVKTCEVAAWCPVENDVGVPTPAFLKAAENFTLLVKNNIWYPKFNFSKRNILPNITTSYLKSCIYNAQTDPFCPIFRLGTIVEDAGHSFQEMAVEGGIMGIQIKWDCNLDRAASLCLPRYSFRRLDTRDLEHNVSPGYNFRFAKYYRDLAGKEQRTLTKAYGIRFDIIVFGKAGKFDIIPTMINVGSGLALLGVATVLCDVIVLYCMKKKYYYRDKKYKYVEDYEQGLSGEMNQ
Nature of the test: Two-electrode voltage-clamp of ATP EC10-induced currents in WT P2X4Rs expressed in Xenopus oocytes. It is filed as cell-based. The method, then: Isolation of Xenopus Laevis oocytes and cRNA injections. Xenopus oocytes were isolated and maintained as described previously^18,19. All procedures for the maintenance of Xenopus Laevis frogs and oocyte isolation were approved by The Institutional Animal Care and Use Committee of the University of Southern California. Stage V and VI oocytes were used for cRNA (0.01-5 ng) injections using Nanoject II Nanoliter injection system (Drummond Scientific, Broomall, Pa.) one day after isolation. Injected oocytes were stored at 16° C. in incubation medium containing (in mM), […], theophylline 0.6, pyruvic acid 2.5, with 1% horse serum and 0.05 mg/ml gentamycin. The oocytes were used in electrophysiological recordings for 3-10 days after cRNA injections.
Site-directed mutagenesis and cRNA synthesis. The cDNA of rat P2X4R (GenBank accession No. X87763) was sub-cloned into pcDNA3 vector (Invitrogen, Carlsbad, Calif.). Mutagenesis was performed to introduce single point mutations using QuickChange IIXL Site-Directed Mutagenesis kit (Stratagene, La Jolla, Calif.). The sequences of mutant constructs were verified using automated DNA sequencing (USC/Norris DNA Core Facility, University of Southern California).
The DNA of WT or mutant receptors was linearized and transcribed using the mMESSAGE mMACHINE kit (Ambion, Austin, Tex.) to result in cRNA, which was stored at −70° C. until injection.
Whole-cell voltage-clamp recordings. Two-electrode voltage-clamp recordings of oocytes were performed using a Warner Instruments Model OC-725C oocyte clamp amplifier (Hamden, Conn.) using procedures published earlier^5,6.
Experimental procedures. To induce currents and test the effects of alcohols and IVM in the present experiments, maximal (100 μM) or submaximal ATP concentrations (EC5-10 furthered referred to as EC10) were used. It has been previously shown that the use of EC10 can maximize the effects of ethanol and minimize receptor desensitization 18,19. The washout time between agonist applications was at least 5-10 min to allow complete re-sensitization of the receptors^18, 19.
Effects of the drugs were tested after a stable response to ATP EC10 was obtained. After a sufficient washout time (5-15 min), the cells were challenged with the same ATP EC10 to ensure an accurate response to the drugs and to asses any change in the baseline level.
IVM and alcohol applications.
Data analysis. Data are obtained from several batches of oocytes of at least 3 different frogs and are expressed as mean±SEM. Ethanol (hexanol) and/or IVM effects are presented as percentage change of peak currents evoked by ATP EC10 alone. Data were fitted to a concentration-response curve by using the following logistic equation: I=Imax*[drug]/([drug]+(EC50)), where I/Imax is the percentage of the maximum obtainable response, EC50 is the concentration producing a half-maximal response. GraphPAD Prism software (San Diego, Calif.) was used for data analysis and curve fitting. Statistical analysis was performed using unpaired t-test with significance set at P<0.05.
Background: Two-electrode voltage clamp is typically applied to oocytes expressing channels or transporters.

Another test has as its target T2, P2X4Rs (Rattus norvegicus, UniProt P51577).
T2 construct: expressed in transfected cells; host or cells: Xenopus laevis oocytes injected with cRNA
T2 sequence (P51577 1-388): T1 sequence (P51577 1-388)
Nature of the test: Surface biotinylation and Western blotting of P2X4R surface expression in oocytes. To be noted: 3 μM IVM in the presence of 1 μM ATP; 20 s and 2 min. It is filed as cell-based. The protocol: Surface biotinylation and Western blotting. Oocytes expressing P2X4R cRNA were treated with 3 μM IVM in the presence and absence of 1 μM ATP and incubated with 1.0 mg/ml membrane-impermeable sulfo-NHS-SS-biotin (Pierce Biotechnology, Rockford, Ill.) for 1 hr on ice. After lysis, the biotinylated proteins were precipitated by overnight incubation with streptavidin beads (Pierce Biotechnology) and extracted using SDS sample buffer. Protein lysates of total and biotinylated fractions were then run on 10% SDS-PAGE, transferred to PVDF membranes and blotted with a rabbit P2X4R antibody (Millipore, Temecula, Calif.). Following incubation with the secondary anti-rabbit antibody, the P2X4R bands were visualized using enhanced chemiluminescence (Pierce Biotechnology).
For orientation: A western blot detects proteins with antibodies after separation by electrophoresis.

A further test concerns the target T3, rat WT P2X4 receptor (Rattus norvegicus, UniProt P51577).
T3 construct: expressed in transfected cells; host or cells: Xenopus laevis oocytes injected with cRNA
T3 sequence (P51577 1-388): T1 sequence (P51577 1-388)
Nature of the test: Comparison of Ivermectin analogues: two-electrode voltage-clamp of ATP EC10 currents in rat WT P2X4 receptor in Xenopus oocytes. In kind it is cell-based. The protocol: Isolation of Xenopus Oocytes and cRNA Injections. Xenopus laevis frog (Nasco; WI) maintenance, oocyte isolation and cRNA injections were performed according to protocols as described previously (11,12,24).
Transcription of cDNA to cRNA. XL-Blue E. coli competent cells (Stratagene; CA) were transformed with rat WT P2X4 receptor cDNAs cloned into pcDNA3 vector (Invitrogen; CA). The isolated DNA was linearized and transcribed to result in capped cRNA, which was dissolved in nuclease-free water and stored at −70° C. until injection.
Whole-Cell Voltage Clamp Recording. […] Electrodes were prepared and used to impale the oocyte that was continuously perfused at the rate of 3-4 ml/min by extracellular bathing solution per procedures previously published (11,12,24). The peak currents recorded using a strip-chart recorder (Barnstead/Thermolyne, Iowa) were used in data analysis. All experiments were performed at room temperature (20-23° C.).
Experimental Procedures. Maximal ATP currents were induced by 15 s application of 100 μM ATP. Submaximal ATP concentrations (EC10) were applied for 20 s to generate currents. Ethanol and ABM/IVM were co-applied with ATP EC10. Washout time between drug applications was at least 5 min.
Data Analysis. Data are obtained from several batches of at least 3 different oocyte batches and are presented as percentage change of peak currents evoked by ATP EC10 alone±SEM. GraphPAD Prism software (San Diego, Calif.) was used for data analysis and curve fitting. Statistical analysis was performed using Student's unpaired t-test and significance set at P<0.05.

A further test relates to male C57BL/6 mice. As to conditions: 10% alcohol, 24 hour access.
The test system of another test is uninjected oocytes. Nature of the test: Resting membrane currents in uninjected oocytes.

Text for uninjected oocytes: IVM and alcohol applications. […] To allow comparison of the effects of IVM with those of ethanol, the same co-application protocol was used for IVM.

In the case of `CC[C@H](C)[C@H]1O[C@]2(CC[C@@H]1C)C[C@@H]1C[C@@H](C/C=C(\C)[C@@H](O[C@H]3C[C@H](OC)[C@@H](O[C@H]4C[C@H](OC)[C@@H](O)[C@H](C)O4)[C@H](C)O3)[C@@H](C)/C=C/C=C3\CO[C@@H]4[C@H](O)C(C)=C[C@@H](C(=O)O1)[C@]34O)O2` [IVM, 5-O demethyl-22,23-dihydroavermectin A1a], at rat P2X4R (0.5 μM IVM co-applied with 25 mM ethanol), the “antagonism of the inhibitory effect of ethanol on ATP-activated currents” value is “completely antagonized”. Besides, the “potentiation of ATP-gated currents in P2X4Rs” value on rat P2X4R (0.5 μM IVM, delivered separately, ATP EC10) worked out at 31±4.9%. Also, the “antagonism of the inhibitory effects of ethanol” value is recorded as “did not significantly alter” at rat P2X4R (IVM 0.5 μM, 200 mM ethanol); “completely antagonized” on rat P2X4R (IVM 0.5 μM, 50 and 100 mM ethanol); “completely antagonizing” on rat P2X4R (IVM 1.0 and 3.0 μM, all ethanol concentrations (50-200 mM)); “antagonizes” on rat WT P2X4 receptor (IVM co-applied with ethanol (FIGS. 9A and B)). The “effect on ATP-induced currents in P2X4R” value on rat P2X4R (IVM 3 μM applied individually) was “significantly potentiated”. Besides, at rat P2X4R (IVM 3 μM with hexanol 10 mM), the “net result of exposure to both IVM and hexanol versus additive effects” value is “significantly less”. Further, the “combined action of IVM and ethanol versus estimated additive values of the individual effects” value on rat P2X4R (IVM 0.5, 1 and 3 μM with ethanol 50, 100, 200 mM) is recorded as “significantly lower”. At rat P2X4R (IVM co-applied with ATP, concentration-dependent and reversible), the “effect on EC10 ATP-gated currents in P2X4Rs” value is listed as “significantly potentiated”. Further, at P2X4Rs, the “surface expression levels of P2X4Rs in oocytes” value is on record as “did not change”. For the same compound, the “potentiation of ATP-induced currents, concentration dependence” value at rat WT P2X4 receptor (co-application and pre-incubation (FIGS. 10C and 10D)) is reported as “concentration dependent”. Moreover, the “decrease in alcohol consumption” value in the test with male C57BL/6 mice (IVM 2.5 mg/kg) is listed as 32%; in the test with male C57BL/6 mice (IVM 10 mg/kg), 50%. The “resting membrane currents in uninjected oocytes” value in the test on uninjected oocytes is reported as “did not affect”.
